# US20080063642A1, “Methods of using (+)-1,4-dihydro-7-[(3S,4S)-3-methoxy-4-(methylamino)-1-pyrrolidinyl]-4-oxo-1-(2-thiazolyl)-1,8-naphthyridine-3-carboxylic acid for treatment of certain hematologic disorders” (priority 2006, published 2008)
# Like-named read-outs stand apart in the source and are kept apart here. Marks after values point to notes of the source that are not given here.
# Tests used:
# [1] = test system: CCRF-CEM (lymphoblastic leukemia); experiment: MTT cell viability assay, CCRF-CEM; format: cell-based; conditions: Homo sapiens, MTT after 72 hours
# Procedure: (§1) The following cell lines were used in this assay: HL-60 (promyelocytic leukemia); Jurkat (T cell leukemia); CCRF-CEM (lymphoblastic leukemia); CEM/C2 (camptothecan resistant derivative of CCRF-CEM).
# (§2) Cells were seeded in 96 wells plates at 3000 cells per well and incubated for 16 hours. Compound dilutions were performed in DMSO from 10 mM with 3 fold dilutions. Titrations were diluted 1:100 in media to achieve final compound concentrations. The 96 well plates were aspirated and compound dilutions in media were added ([…]). MTT analysis was carried out after 72 hours of incubation at 37° C. Briefly, […] of MTT solution was added to each well. Cells were incubated at 37° C. for 1-2 hours. Cells were lysed with the addition of […] cell lysis buffer and MTT was solubilized overnight at 37° C. Plates were read on a spectromax machine with an absorbance measurement at […]. IC50's were calculated (data provided in Table 1) using regression analysis within GraphPad Prism.
# [2] = Bone marrow/cytology assay (Example 4): body weight loss; format: in vivo, Female CD-1 mice; conditions: all dose groups, 5-20 mg/kg
# Procedure: (§3) Blood was drawn on days 6, 8, and 12 post initial injection for hematological analysis. Femurs were extracted on day 6 fixed in Streck and H&E stained prior to bone marrow cellularity analysis. […] At 20 mg/kg, cellularity was reduced to 7.5%, while circulating neutrophils were reduced from a pre-dose level of […] to a nadir of 51±24 cells/mL blood on day 8. Absolute neutrophil counts subsequently rebounded and soon returned to normal levels. Total WBCs also reached a nadir on day 8, but returned to normal levels.
# FIGS. 5 and 6 show neutrophil and total white blood cell counts from blood samples on day 8 post initial injection. […] Body weight loss was tolerable across all dose groups.
# [3] = test system: CCRF-CEM acute lymphoblastic leukemia tumor; experiment: CCRF-CEM xenograft model; format: in vivo; conditions: CCRF-CEM; 25 mg/kg q7d × 3, IV; 20 or 21 days after start
# Procedure: CCRF-CEM acute lymphoblastic leukemia tumor lobes of 2-3 mm square were transplanted subcutaneously into nude mice. Tumors were allowed to grow to approximately 8-20 mm in diameter. […] Acceptable toxicity was defined as a mean group weight loss of 30% or less and not more than one toxic death among 6 treated animals. Anti-tumor activities of the drugs were assessed 20 or 21 days after the start of administration. FIGS. 1-2 and Table 2 provides data for tumor inhibition rate (IR) and survival ratio in the CCRF-CEM and LM3-Jck xenograft models.
# [4] = test system: peripheral neutrophils, white blood cells, platelets; experiment: Combination dosing SNS-595 and Ara-C (Example 5): peripheral cytology; format: in vivo, nu/nu mice; conditions: mouse, in vivo
# Procedure: At various time points described in Table 5, mice were euthanized by CO2 asphyxiation in accordance to Institutional Animal Care and Use Committee (IACUC) guidelines. Blood was collected through cardiac tap and transferred to EDTA tubes. The analysis of murine blood CBC and differential counts for samples in these tubes was conducted (at Quality Clinical Labs, Moutainview). Statistical significance was determined by one-tailed student t-test, using Welch's correction for unequal variances.
# [5] = test system: CEM/C2 (camptothecan resistant derivative of CCRF-CEM); experiment: MTT cell viability assay, CEM/C2; format: cell-based; conditions: Homo sapiens, MTT after 72 hours
# Procedure: as §1, §2
# [6] = test system: myeloid cell lineages in bone marrow; experiment: Monotherapy and combination with Ara-C (Example 6): bone marrow smears, differential counts; format: in vivo, Female CD-1 mice; conditions: SNS-595 treated animals; Day 6
# Procedure: Combination: […] Blood was analyzed at Quality Control Labs (Mountain View, Calif.) for complete blood count and differential count. Bone marrow smears from femurs on Day 6 and Day 12 were prepared and geimsa stained for differential counts. Femurs were also placed in Streck fixative, processed, sectioned and H&E stained. Femur and bone marrow smears were analyzed at BioPathology Sciences (South San Francisco, Calif.) for total cellularity and differential count.
# [7] = test system: circulating neutrophils, WBCs, platelets; set-up: species or system Female CD-1 mice; conditions: mouse, in vivo
# Procedure: as §3
# [8] = test system: HL-60 (promyelocytic leukemia); experiment: MTT cell viability assay, HL-60; format: cell-based; conditions: Homo sapiens, MTT after 72 hours
# Procedure: as §1, §2
# [9] = test system: bone marrow; experiment: Bone marrow/cytology assay (Example 4): bone marrow cellularity; format: in vivo, Female CD-1 mice
# Procedure: as §3
# [10] = CD-1 mouse model; q4d × 2
# [11] = test system: bone marrow; experiment: Monotherapy and combination with Ara-C (Example 6): bone marrow total cellularity; format: in vivo, Female CD-1 mice
# Procedure: Blood was analyzed at Quality Control Labs (Mountain View, Calif.) for complete blood count and differential count. Bone marrow smears from femurs on Day 6 and Day 12 were prepared and geimsa stained for differential counts. Femurs were also placed in Streck fixative, processed, sectioned and H&E stained. Femur and bone marrow smears were analyzed at BioPathology Sciences (South San Francisco, Calif.) for total cellularity and differential count. […] The compounds were administered on Day 0 and Day 4.
# [12] = test system: Jurkat (T cell leukemia); experiment: MTT cell viability assay, Jurkat; format: cell-based; conditions: Homo sapiens, MTT after 72 hours
# Procedure: as §1, §2
# [13] = test system: femoral bone marrow; experiment: Combination dosing SNS-595 and Ara-C (Example 5): femoral bone marrow cellularity; format: in vivo, nu/nu mice
# Excerpt: Femurs were harvested for histological evaluation. The femur was placed in Streck fixative, paraffin embedded, sectioned, transferred to slides, and H&E stained (at BioPathology Sciences). Immunohistochemical slides were processed and analyzed for percent cellularity of intact bone marrow.
# [14] = mouse, in vivo, iv
# Procedure: The effects of dosing were studied on changes in body weight, peripheral cytology, and femoral bone marrow cellularity over time as described below.
# Before beginning the study, all animals were allowed to acclimatize for 3 days from shipping related stress and the health of the mice was assessed daily by observation. Purified water (reverse osmosis) and irradiated food (PicoLab Rodent Diet 20, #5053; Dean's Animal Feeds, San Carlos, Calif.) were provided ad libitum, and the animals were kept on a 12 hour light and dark cycle.
# [15] = test system: LM3-Jck human malignant lymphoma tumor; experiment: LM3-Jck xenograft model; format: in vivo; conditions: for IR (%) tumor inhibition rate: LM3-JcK, 21 days after start
# Procedure: LM3-Jck human malignant lymphoma tumor lobes (2-3 mm square) were transplanted subcutaneously into nude mice. Tumors were allowed to grow to approximately 7-14 mm in diameter. […] Acceptable toxicity was defined as a mean group weight loss of 30% or less and not more than one toxic death among 6 treated animals. Anti-tumor activities of the drugs were assessed 21 days after the start of administration.
# [16] = Group 4: SNS-595 15 mg/kg IV q4d × 2
structure (smiles),measurement,setting,value
"CN[C@H]1CN(c2ccc3c(=O)c(C(=O)O)cn(-c4nccs4)c3n2)C[C@@H]1OC [SNS-595, (+)-1,4-dihydro-7-[(3S,4S)-3-methoxy-4-(methylamino)-1-pyrrolidinyl]-4-oxo-1-(2-thiazolyl)-1,8-naphthyridine-3-carboxylic acid]",IC50,[1],0.018 µg/mL
same,body weight loss,[2],tolerable
same,IR (%) tumor inhibition rate,[3],98.1* %
same,"circulating white blood cells, dose response",[4],dose-dependent reduction
same,day by which neutrophils returned to normal levels,[4],≤ 12 days
same,day by which platelets returned to normal levels,[4],≤ 12 days
same,number of neutrophils versus vehicle group,[4],significantly lower than the vehicle group
same,recovery of white blood cells,[4],failed to return to normal levels by day 18
same,number of platelets versus vehicle group,[4]; 5 mg/kg,not significantly decrease
same,number of circulating white blood cells versus vehicle group,[4]; 10 mg/kg,significantly lower than the vehicle group
same,number of white blood cells versus vehicle group,[4]; 15 mg/kg,significantly lower than the vehicle group
same,IC50,[5],0.01 µg/mL
same,immature neutrophils in bone marrow smears,[6],significant increase
same,platelet response,[7],minor platelet response
same,day of total WBC nadir,[7]; iv,8 days
same,IC50,[8],0.053 µg/mL
same,bone marrow cellularity,"[9]; 20 mg/kg IV Day 0 and Day 4, femurs day 6",7.5%
same,bone marrow at 12 days post initial injection,"[9]; 20 mg/kg, day 12",bone marrow rebound
same,"bone marrow cellularity, dose response","[9]; 5, 10, 15, 20 mg/kg IV Day 0 and Day 4, two days after second administration",dose-dependent reduction in cellularity
same,maximum tolerated dose (MTD),[10],SNS-595 20 mg/kg q4d × 2*
same,Total Cellularity (Avg) Exp #2,[11]; SNS-595 10 mg/kg q4d × 2,54%
same,Total Cellularity (Avg) Exp #1,"[11]; SNS-595 10 mg/kg q4d × 2, two days after completion of treatment, 10 mg/kg",56%
same,Total Cellularity (Avg) Exp #2,[11]; SNS-595 20 mg/kg q4d × 2,18%
same,IC50,[12],0.023 µg/mL
same,"total cellularity, femur cross section of representative animal","[13]; Day 6, SNS-595 5 mg/kg q4d ×2 IV, Animal #23",60%
same,"total cellularity, femur cross section of representative animal","[13]; Day 6, SNS-595 10 mg/kg q4d ×2 IV, Animal #44",50%
same,"total cellularity, femur cross section of representative animal","[13]; Day 6, SNS-595 15 mg/kg q4d ×2 IV, Animal #63",20%
same,"total cellularity, femur cross section of representative animal","[13]; Day 12, SNS-595 15 mg/kg q4d ×2 IV, Animal #73",100%
same,Average Total Cellularity Day 6,[13]; Group 2: SNS-595 5 mg/kg IV q4d × 2,70%
same,Average Total Cellularity Day 6,[13]; Group 3: SNS-595 10 mg/kg IV q4d × 2,56%
same,Average Total Cellularity Day 6,[13]; [16],26%
same,Average Total Cellularity Day 12,[13]; [16],100%
same,reduction in cellularity,[13]; SNS-595 10 mg/kg IV single agent,44%
same,"bone marrow cellularity, dose response","[13]; SNS-595 single agent 5, 10, 15 mg/kg",dose-dependent reduction in bone marrow cellularity
same,% of Body Wt Nadir,[14]; 5 mg/kg,0%
same,Day of Body Wt Nadir,[14]; 5 mg/kg,0 days
same,% of Body Wt Nadir,[14]; 10 mg/kg,0%
same,Day of Body Wt Nadir,[14]; 10 mg/kg,0 days
same,% of Body Wt Nadir,[14]; 15 mg/kg,−2.8%
same,Day of Body Wt Nadir,[14]; 15 mg/kg,7 days
same,IR (%) tumor inhibition rate,"[15]; 20 mg/kg q7d × 3, IV",98.9* %
same,IR (%) tumor inhibition rate,"[15]; 25 mg/kg q7d × 3, IV",98.5* %
same,antitumor activity,"[15]; LM-3 Jck malignant lymphoma, 20 and 25 mg/kg",complete tumor regressions
